The record followed here is the supplement of paper PMC11061612.

Common to all, as to assay: Bliss excess, mean over the matrix (fraction); higher = more synergy
The test system of experiment [1] is KYSE-70 (Esophageal Squamous Cell Carcinoma). The essentials:
(§1)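 Cell lines grown in DMEM/F12 or RPMI with 10% FBS were plated in 1536-well plates and held 24 hours at 37°C, 5% CO2 before 72 hours of exposure to two-drug dose matrices, with DMSO typically at 0.2%. CellTiter-Glo 2.0 luminescence gave viability, which was converted to inhibition. Vehicle wells were set to 0 and blank wells to 1. Combination Emax is the second-highest inhibition in the matrix, and Bliss excess is the observed combination effect minus the expected EA + EB − EA·EB, where EA and EB are the single-agent effects.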

Experiment [2] deals with FLO-1 (Esophageal Adenocarcinoma). In outline:
as §1

In experiment [3] the test system is CHL-1 (Melanoma). In outline:
as §1

The subject of experiment [4] is Calu-6 (Non-Small Cell Lung Carcinoma). In outline: as §1
Experiment [5] concerns NCI-H1155 (Non-Small Cell Lung Carcinoma). In outline: as §1
In experiment [6] the test system is CML-T1 (Chronic Myelogenous Leukemia). In outline:
as §1

Experiment [7] has as its system HSC-3 (Oral Cavity Carcinoma). In outline:
as §1

For experiment [8], the system named is NCI-H196 (Small Cell Lung Carcinoma). In outline: as §1
In experiment [9] the test system is NCI-H1755 (Lung Adenocarcinoma). The essentials: as §1
For experiment [10], the system named is RPMI-8866 (Chronic Myelogenous Leukemia). The essentials:
as §1

For experiment [11], the system named is NCI-H1623 (Lung Adenocarcinoma). The essentials:
as §1

The subject of experiment [12] is JHH-1 (Hepatocellular Carcinoma). In outline:
as §1

Experiment [13] deals with EB-3 (Burkitt's Lymphoma). In outline: as §1
The test system of experiment [14] is COLO-684 (Endometrial Carcinoma). In outline:
as §1

Experiment [15] deals with SK-MM-2 (Plasma Cell Myeloma). In outline:
as §1

The test system of experiment [16] is RL95-2 (Endometrial Carcinoma). In outline: as §1
The test system of experiment [17] is SJRH30 (Rhabdomyosarcoma). The essentials: as §1
Experiment [18] has as its system KYM-1 (Rhabdomyosarcoma). In outline: as §1
In experiment [19] the test system is HuO-3N1 (Osteosarcoma). The essentials: as §1
For experiment [20], the system named is OV-90 (Ovarian Carcinoma). The essentials:
as §1

In the case of `NC1(C(=O)N[C@@H](CCO)c2ccc(Cl)cc2)CCN(c2ncnc3[nH]ccc23)CC1` [Capivasertib] + CC(=O)c1c(C)c2cnc(Nc3ccc(N4CCNCC4)cn3)nc2n(C2CCCC2)c1=O [Palbociclib] (first compound max 10 µM, 7x7, partner max 10 µM), the Bliss excess in experiment [1] was 0.0188; in [2], -0.0218; in experiment [3], -0.0082; in [4], 0.0488; in [5] it was -0.0084; in experiment [6] it was 0.0054. Besides, the Bliss excess in experiment [7] is -0.0076; in experiment [8] it was -0.0706; in [9] it was 0.0036; in experiment [10], 0.0215; in experiment [11], -0.0156; in experiment [12] it was -0.0687. Besides, the Bliss excess in experiment [13] is -0.0328; in experiment [14], -0.0759; in experiment [15], -0.0005; in [16], 0.0215; in experiment [17], -0.0084; in experiment [18], -0.0312. For the same molecule, the Bliss excess in [19] is -0.105; in [20], -0.0562.
As for `CC1(C)CCC(CN2CCN(c3ccc(C(=O)NS(=O)(=O)c4ccc(NCC5CCOCC5)c([N+](=O)[O-])c4)c(Oc4cnc5[nH]ccc5c4)c3)CC2)=C(c2ccc(Cl)cc2)C1` [Venetoclax] + CN(C)CCCOc1ccc(-c2ccc3ncc4c(c3c2)n(C2CCOCC2)c(=O)n4C)cn1 [AZD0156] (first compound max 1 µM, 7x7, partner max 1 µM), the Bliss excess in experiment [1] is -0.0359; in experiment [2] it was -0.113; in [3], 0.0082; in experiment [4] it was 0.0071; in experiment [5], -0.0214; in experiment [6], 0.0232. The Bliss excess is 0.012 in experiment [7]; -0.0333 in experiment [8]; 0.0342 in experiment [9]; -0.0408 in experiment [10]; -0.0133 in experiment [11]; -0.042 in experiment [12]. For the same molecule, the Bliss excess is 0.0498 in [13]; -0.0356 in [14]; -0.0129 in [15]; -0.0027 in [16]; 0.0084 in [17]; 0.013 in [18]. In addition, the Bliss excess in experiment [19] is -0.0235; in experiment [20], -0.041.
Regarding `COc1cccc(OCCCN)c1-c1cc(Nc2cnc(C#N)cn2)n[nH]1` [Prexasertib] + C[C@@H]1COCCN1C2=NC(=NC(=C2)C3(CC3)[S@](=N)(=O)C)C4=C5C=CNC5=NC=C4 [AZD6738] (first compound max 1 µM, 7x7, partner max 10 µM), the Bliss excess in experiment [1] was 0.0378; in experiment [2], -0.0233; in experiment [3] it was 0.0139; in experiment [4], -0.0852; in experiment [5] it was -0.0438; in [6] it was -0.0309. Besides, the Bliss excess in experiment [7] is 0.0351; in [8], -0.049; in experiment [9], -0.0534; in experiment [10], 0.0633; in experiment [11] it was -0.0745; in experiment [12], 0.0009. Moreover, the Bliss excess in experiment [13] is -0.0598; in [14], -0.0733; in experiment [15] it was -0.0348; in experiment [16], -0.0487; in experiment [17], -0.0192; in [18], -0.0107. Also, the Bliss excess in experiment [19] was 0.0204; in experiment [20] it was -0.0275.
For the molecule `C=CCn1c(=O)c2cnc(Nc3ccc(N4CCN(C)CC4)cc3)nc2n1-c1cccc(C(C)(C)O)n1` [AZD1775] + C1CN(CCC1(C(=O)N[C@@H](CCO)C2=CC=C(C=C2)Cl)N)C3=NC=NC4=C3C=CN4 [Capivasertib] (first compound max 3 µM, partner max 3 µM), the Bliss excess in experiment [1] is -0.0193; in [2], -0.0228; in experiment [3], 0.0106; in experiment [4], 0.0034; in experiment [5], 0.0056; in experiment [6], -0.0178. Further, the Bliss excess is 0.0552 in experiment [7]; -0.118 in experiment [8]; -0.0691 in [9]; 0.0091 in experiment [10]; -0.0576 in [11]; -0.018 in experiment [12]. Also, the Bliss excess was -0.111 in experiment [13]; -0.0937 in experiment [14]; -0.0629 in experiment [15]; 0.0093 in experiment [16]; -0.0065 in experiment [17]; -0.0084 in experiment [18]. In addition, the Bliss excess was -0.0033 in [19] and -0.0235 in experiment [20].
`Cn1cnc2c(F)c(Nc3ccc(Br)cc3Cl)c(C(=O)NOCCO)cc21` [Selumetinib] + C=CCn1c(=O)c2cnc(Nc3ccc(N4CCN(C)CC4)cc3)nc2n1-c1cccc(C(C)(C)O)n1 [AZD1775] (first compound max 10 µM, partner max 1 µM): the Bliss excess in experiment [1] was -0.0339; in [2], -0.0108; in experiment [3] it was -0.0386; in experiment [4], -0.0133; in experiment [5], -0.0474; in [6], -0.0607. Further, the Bliss excess in [7] was -0.0355; in experiment [8], -0.0704; in experiment [9], 0.0496; in experiment [10], -0.0049; in [11], -0.0223; in experiment [12], 0.0171. The Bliss excess in [13] is -0.0729; in [14], -0.0323; in experiment [15] it was -0.0198; in [16], 0.0148; in experiment [17], -0.0372; in [18] it was -0.0696. Moreover, the Bliss excess is -0.0972 in [19] and -0.0274 in [20].
Regarding `CN(CCO)CC[C@H](CSc1ccccc1)Nc1ccc(S(=O)(=O)NC(=O)c2ccc(N3CCC([C@@H](O)c4ccccc4-c4ccc(Cl)cc4)CC3)cc2)cc1S(=O)(=O)C(F)(F)F` [AZD4320] + C[C@@H]1COCCN1C2=NC(=NC(=C2)C3(CC3)[S@](=N)(=O)C)C4=C5C=CNC5=NC=C4 [AZD6738] (first compound max 1 µM, 7x7, partner max 10 µM), the Bliss excess was -0.0096 in [1]; -0.0574 in [2]; 0.0607 in experiment [3]; -0.0258 in experiment [4]; 0.0351 in experiment [5]; 0.0149 in experiment [6]. Also, the Bliss excess in [7] was -0.054; in experiment [8], -0.0112; in experiment [9], -0.0214; in [10] it was 0.0527; in experiment [11], -0.0101; in experiment [12], -0.0234. Moreover, the Bliss excess in [13] is -0.0287; in experiment [14], -0.0589; in experiment [15] it was -0.0126; in [16] it was -0.0163; in experiment [17] it was 0.0213; in experiment [18] it was 0.0286. Also, the Bliss excess is 0.0154 in experiment [19] and -0.0354 in [20].
